Where a name gives a salt, the structure may show the parent alone.

This test concerns DGAT. Nature of the test: DGAT Phospholipid FlashPlate Assay. Format: biochemical. The conditions noted are these: DGAT pellet, DAG-coated PL-FlashPlate, 14C-Pal-CoA, 37° C. for 1 hour; read-out: DGAT Inhibition Activity IC50. The protocol:
DGAT Phospholipid FlashPlate Assay
Materials for the assay were: PL-FlashPlate: Phospholipid FlashPlates from PerkinElmer, catalog number SMP108; DAG (1,2-Dioleoyl-sn-glycerol) 10 mM suspended in water containing 0.1% Triton X-100; ^14C-Pal-CoA (palmitoyl coenzyme A, [palmitoyl-1-^14C]) from PerkinElmer, catalog number NEC-555 with a specific activity of 55 mCi/mmol; and DGAT pellet, with a protein concentration of 9.85 mg/ml.
Aqueous buffers were prepared or purchased as follows: The coating buffer (CB) was purchased from PerkinElmer, catalog number SMP900A; the reaction buffer (RB) was 50 mM Tris-HCl, pH 7.5, 100 mM NaCl, 0.01% BSA in water; the washing buffer (WB) is 50 mM Tris-HCl, pH 7.5, 100 mM NaCl, 0.05% deoxycholic acid sodium salt in water; the dilution buffer (DB) was 50 mM Tris-HCl, pH 7.5, 100 mM NaCl, 1 mM EDTA, 0.2% Triton X-100 in water.
1,2-Dioleoyl-sn-glycerol (DAG, 10 mmoles) was diluted to 500 μM with coating buffer (CB). The diluted DAG solution was then added to 384-well PL-FlashPlates at 60 μl per well, and incubated at room temperature for 2 days. The coated plates were then washed twice with washing buffer (WB) before use. Test compounds were serial diluted to 2000, 666.7, 222.2, 74.1, 24.7, 8.2, 2.7 and 0.9 μM in 100% DMSO. Diluted compound were further diluted 10 fold with reaction buffer (RB). ^14C-Pal-CoA was diluted to 8.3 μM with RB. The DGAT pellet was diluted to 0.13 mg protein/ml with dilution buffer (DB) immediately before it was added to the PL-FlashPlates to start the reaction. 20 μl of the RB-diluted compounds (or 10% DMSO in RB for Total and Blank), 15 μl of RB diluted 14C-Pal-CoA and 15 μl of DB diluted DGAT pellet (DB without DGAT for Blanks) were transferred to each well of the PL-FlashPlates. The reaction mixtures were incubated at 37° C. for 1 hour. The reactions were stopped by washing 3 times with WB. Plates were sealed with Top-seal and read on a Topcount instrument.
Calculation of IC50: The IC50 values for each compound were generated using an Excel template. The Topcount rpm readings of Total and Blank were used as 0% and 100% inhibition. The percent inhibition values of reactions in the presence of compounds were calculated, and plotted against compound concentrations. All data were fitted into a Dose Response One Site model (4 parameter logistic model) as the following: (A+((B−A)/(1+((x/C)^D)))), with A and B as the bottom and top of the curve (highest and lowest inhibition), respectively, and C as IC50 and D as Hill Coefficient of the compound.
Take `CC(C)(CC(=O)N1CCN(c2ccc(NC(=O)c3cc4c(Cl)cccc4s3)cc2)CC1)C(=O)O` [Example 26, 4-(4-{4-[(4-Chloro-benzo[b]thiophene-2-carbonyl)-amino]-phenyl}-piperazin-1-yl)-2,2-dimethyl-4-oxo-butyric acid]: the half-maximal inhibitory concentration (IC50) was 145 nM. In the case of `CCn1c(C(=O)Nc2ccc(N3CCN(C(=O)[C@H]4CC[C@H](C(=O)OCc5ccccc5)CC4)CC3)nc2)cc2c(OC)cccc21` [Example 27, trans-4-(4-{5-[(1-Ethyl-4-methoxy-1H-indole-2-carbonyl)-amino]-pyridin-2-yl}-piperazine-1-carbonyl)-cyclohexanecarboxylic acid benzyl ester] it was 826 nM; in that of `CCn1c(C(=O)Nc2ccc(N3CCN(C(=O)[C@H]4CC[C@H](C(=O)O)CC4)CC3)nc2)cc2c(OC)cccc21` [Example 28, trans-4-(4-{5-[(1-Ethyl-4-methoxy-1H-indole-2-carbonyl)-amino]-pyridin-2-yl}-piperazine-1-carbonyl)-cyclohexanecarboxylic acid], 385 nM.

`CCOc1cccc2c1cc(C(=O)Nc1ccc(N3CCN(C(=O)[C@H]4CC[C@H](C(=O)O)CC4)CC3)cc1)n2CC` [Example 29, trans-4-(4-{4-[(4-Ethoxy-1-ethyl-1H-indole-2-carbonyl)-amino]-phenyl}-piperazine-1-carbonyl)-cyclohexanecarboxylic acid]: the concentration for half-maximal inhibition (IC50) is 980 nM. Under `CCn1c(C(=O)Nc2ccc(C3CCN(C(=O)[C@H]4CC[C@H](C(=O)O)CC4)CC3)cc2)cc2c(C)cccc21` [Example 30, trans-4-(4-{4-[(1-Ethyl-4-methyl-1H-indole-2-carbonyl)-amino]-phenyl}-piperidine-1-carbonyl)-trans-1,4-cyclohexanecarboxylic acid] stands 824 nM; under `CCOc1cccc2c1cc(C(=O)Nc1ccc(N3CCN(C(=O)[C@@H]4CCC[C@H]4C(=O)O)CC3)cc1)n2CC` [Example 31, (1R,2R)-2-(4-{4-[(4-Ethoxy-1-ethyl-1H-indole-2-carbonyl)-amino]-phenyl}-piperazine-1-carbonyl)-cyclopentanecarboxylic acid], 380 nM; under `CCOc1cccc2c1cc(C(=O)Nc1ccc(C3CCN(C(=O)[C@@H]4CCC[C@H]4C(=O)O)CC3)cc1)n2CC` [Example 32, (1R,2R)-2-(4-{4-[(4-Ethoxy-1-ethyl-1,1-indole-2-carbonyl)-amino]-phenyl}-piperidine-1-carbonyl)-cyclopentanecarboxylic acid], 495 nM.

Consider `CCn1c(C(=O)Nc2ccc(N(C)CCOC)nc2)cc2cc(OC(F)(F)F)ccc21` [Example 33, 1-Ethyl-5-trifluoromethoxy-1H-indole-2-carboxylic acid {6-[(2-methoxy-ethyl)-methyl-amino]-pyridin-3-yl}-amide hydrochloride], for which the concentration for half-maximal inhibition (IC50) came out at 662 nM. Under `COCCN(C)c1ccc(NC(=O)c2cc3ccccc3s2)cn1` [Example 34, Benzo[b]thiophene-2-carboxylic acid {6-[(2-methoxy-ethyl)-methyl-amino]-pyridin-3-yl}-amide] stands 683 nM; under `COCCN(C)c1ccc(NC(=O)c2sc3ccccc3c2C)cn1` [Example 35, 3-Methyl-benzo[b]thiophene-2-carboxylic acid {6-[(2-methoxy-ethyl)-methyl-amino]-pyridin-3-yl}-amide hydrochloride], 351 nM. On to `COCCN(C)c1ncc(NC(=O)c2sc3ccccc3c2C)cn1` [Example 36, 3-Methyl-benzo[b]thiophene-2-carboxylic acid {2-[(2-methoxy-ethyl)-methyl-amino]-pyrimidin-5-yl}-amide hydrochloride], for which the half-inhibitory concentration (IC50) was determined as 856 nM. Consider `CCn1c(C(=O)Nc2ccc(N(C)CCOC)nc2)cc2ccccc21` [Example 37, 1-Ethyl-1H-indole-2-carboxylic acid {6-[(2-methoxy-ethyl)-methyl-amino]-pyridin-3-yl}-amide hydrochloride], for which the IC50 was found to be 425 nM.

Consider `CCn1c(C(=O)Nc2ccc(N(C)CCOC)nc2)cc2c(OC)cccc21` [Example 38, 1-Ethyl-4-methoxy-1H-indole-2-carboxylic acid {6-[(2-methoxy-ethyl)-methyl-amino]-pyridin-3-yl}-amide hydrochloride], for which the IC50 stood at 102 nM.

As for `CCn1c(C(=O)Nc2ccc(N(C)CCOC)nc2)cc2cc(OC)ccc21` [Example 39, 1-Ethyl-5-methoxy-1H-indole-2-carboxylic acid {6-[(2-methoxy-ethyl)-methyl-amino]pyridin-3-yl}-amide hydrochloride], the IC50 is 312 nM. As for `CCn1c(C(=O)Nc2ccc(N(C)CCOC)nc2)cc2cc(OCc3ccccc3)ccc21` [Example 40, 5-Benzyloxy-1-ethyl-1H-indole-2-carboxylic acid {6-[(2-methoxy-ethyl)-methyl-amino]-pyridin-3-yl}-amide], the IC50 stood at 797 nM. Under `CCCn1c(C(=O)Nc2ccc(N(C)CCOC)nc2)cc2ccccc21` [Example 41, 1-Propyl-1H-indole-2-carboxylic acid {6-[(2-methoxy-ethyl)-methyl-amino]-pyridin-3-yl}-amide hydrochloride] stands 937 nM. In the case of `COCCN(C)c1ccc(NC(=O)c2cc3cc(Cl)ccc3n2C)cn1` [Example 42, 5-Chloro-1-methyl-1H-indole-2-carboxylic acid {6-[(2-methoxy-ethyl)-methyl-amino]-pyridin-3-yl}-amide hydrochloride] it was 750 nM; in that of `CCn1c(C(=O)Nc2ccc(N(C)CCOC)nc2)cc2cc(Cl)ccc21` [Example 43, 5-Chloro-1-ethyl-4H-indole-2-carboxylic acid {6-[(2-methoxy-ethyl)-methyl-amino]-pyridin-3-yl}-amide hydrochloride], 161 nM.

As to `CCOc1cccc2c1cc(C(=O)Nc1ccc(N3CCN(C(=O)CC(C)(C)C(=O)O)CC3)cc1)n2CC` [Example 44, 4-(4-{4-[(4-Ethoxy-1-ethyl-1H-indole-2-carbonyl)-amino]-phenyl}-piperazin-1-yl)-2,2-dimethyl-4-oxo-butyric acid], the IC50 stood at 489 nM. `CCn1c(C(=O)Nc2ccc(N(C)C3CC3)nc2)cc2cc(Cl)ccc21` [Example 45, 5-Chloro-1-ethyl-1H-indole-2-carboxylic acid [6-(cyclopropyl-methyl-amino)-pyridin-3-yl]-amide]: the IC50 is 668 nM. Turning to `CCOC(=O)N1CC[C@H](Nc2ccc(NC(=O)c3cc4cc(Br)ccc4s3)cn2)C1` [Example 46, (S)-3-{5-[(5-Bromo-benzo[b]thiophene-2-carbonyl)-amino]pyridin-2-ylamino}-pyrrolidine-1-carboxylic acid ethyl ester hydrochloride], the IC50 turned out to be 303 nM. Under `CCOC(=O)N1CC[C@H](Nc2ccc(NC(=O)c3cc4c(Cl)cccc4s3)cn2)C1` [Example 47, (S)-3-{5-[(4-Chloro-benzo[b]thiophene-2-carbonyl)-amino]pyridin-2-ylamino}-pyrrolidine-1-carboxylic acid ethyl ester hydrochloride] stands 280 nM; under `CCOC(=O)N1CC[C@H](Nc2ccc(NC(=O)c3cc4ccccc4s3)cn2)C1` [Example 48, (S)-3-{5-[(Benzo[b]thiophene-2-carbonyl)-amino]-pyridin-2-ylamino}-pyrrolidine-1-carboxylic acid ethyl ester hydrochloride], 396 nM. In the case of `CCOC(=O)N1CC[C@H](Nc2ccc(NC(=O)c3cc4cc(C(F)(F)F)ccc4s3)cn2)C1` [Example 49, (S)-3-{5-[(5-Trifluoromethyl-benzo[b]thiophene-2-carbonyl)-amino]-pyridin-2 ylamino}-pyrrolidine-1-carboxylic acid ethyl ester hydrochloride] it was 594 nM; in that of `CCOC(=O)N1CC[C@H](Nc2ccc(NC(=O)c3cc4cc(Br)ccc4n3CC)cn2)C1` [Example 50, (S)-3-{5-[(5-Bromo-1-ethyl-1H-indole-2-carbonyl)-amino]-pyridin-2-ylamino}-pyrrolidine-1-carboxylic acid ethyl ester hydrochloride], 929 nM.

In general, IC50 refers to the concentration that gives 50% inhibition.

These data come from patent publication US8124766B2, “Inhibitors of diacylglycerol acyltransferase” (Madrigal Pharmaceuticals, Inc., priority 2008, dated 2012).
